pKi: −log10 of the molar value. Blank lines part the entries; values can stand above or below the compound they belong to.
How the values were obtained:
[1] = target: T1, 5-hydroxytryptamine receptor 1A (Homo sapiens) (UniProt P08908); assay: Percent increase in the Forskolin-Stimulated cAMP formation, in HeLa cells transfected with the 5-HT 1A receptor a [compound (1 uM)]; format: functional, cell-based
T1 sequence (whole entry): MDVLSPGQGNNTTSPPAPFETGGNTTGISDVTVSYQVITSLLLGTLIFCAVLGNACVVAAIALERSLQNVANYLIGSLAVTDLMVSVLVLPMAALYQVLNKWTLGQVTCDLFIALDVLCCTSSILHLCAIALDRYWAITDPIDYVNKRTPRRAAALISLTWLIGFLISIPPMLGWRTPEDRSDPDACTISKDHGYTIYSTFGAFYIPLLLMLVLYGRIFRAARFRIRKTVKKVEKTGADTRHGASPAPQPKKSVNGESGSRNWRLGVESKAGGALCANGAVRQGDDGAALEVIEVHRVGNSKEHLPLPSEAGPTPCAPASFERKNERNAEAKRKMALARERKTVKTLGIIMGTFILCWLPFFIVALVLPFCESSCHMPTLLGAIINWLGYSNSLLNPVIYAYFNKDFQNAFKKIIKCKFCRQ

[2] = target: 5-hydroxytryptamine receptor 1D (Homo sapiens, UniProt P28221); assay: Affinity at 5-hydroxytryptamine 1D receptor (For sumatriptan = Ki (nM)-12+/-1.9)
[3] = target: 5-hydroxytryptamine receptor 2A (Rattus norvegicus, UniProt P14842); assay: Affinity at 5-hydroxytryptamine 2 receptor (For ketanserin = Ki(nM)= 0.7+/-0.09)
[4] = target: T2, Adrenergic receptor alpha-2 (Rattus norvegicus, UniProt P22086+P19328+P22909); assay: Affinity towards alpha-2 adrenergic receptor (For clonidine Ki(nM)= […]+/-[…]); format: protein assay
T2 sequence (P22086 whole entry): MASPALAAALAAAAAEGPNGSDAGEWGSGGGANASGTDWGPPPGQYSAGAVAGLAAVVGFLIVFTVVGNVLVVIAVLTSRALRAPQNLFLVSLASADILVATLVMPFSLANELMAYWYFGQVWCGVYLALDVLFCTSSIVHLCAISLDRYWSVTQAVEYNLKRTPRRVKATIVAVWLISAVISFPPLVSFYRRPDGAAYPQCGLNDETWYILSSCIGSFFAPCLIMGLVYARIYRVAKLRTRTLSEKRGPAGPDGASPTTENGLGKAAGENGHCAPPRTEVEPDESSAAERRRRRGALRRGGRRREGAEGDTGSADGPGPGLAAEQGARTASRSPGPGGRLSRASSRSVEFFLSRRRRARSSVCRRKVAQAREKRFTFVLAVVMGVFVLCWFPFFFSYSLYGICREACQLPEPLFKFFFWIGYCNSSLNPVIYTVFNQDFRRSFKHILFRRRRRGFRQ
T2 sequence (P19328 whole entry): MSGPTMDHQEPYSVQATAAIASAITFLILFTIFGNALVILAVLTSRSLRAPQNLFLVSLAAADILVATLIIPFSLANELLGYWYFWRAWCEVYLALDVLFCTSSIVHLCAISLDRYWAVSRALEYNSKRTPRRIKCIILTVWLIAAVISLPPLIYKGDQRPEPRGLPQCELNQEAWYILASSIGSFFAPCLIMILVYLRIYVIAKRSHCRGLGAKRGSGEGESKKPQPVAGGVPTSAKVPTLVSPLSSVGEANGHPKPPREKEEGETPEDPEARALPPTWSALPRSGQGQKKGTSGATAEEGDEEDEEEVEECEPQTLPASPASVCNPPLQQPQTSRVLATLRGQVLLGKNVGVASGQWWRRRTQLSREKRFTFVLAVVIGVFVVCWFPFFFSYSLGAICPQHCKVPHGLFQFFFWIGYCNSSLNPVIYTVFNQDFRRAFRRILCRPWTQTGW
T2 sequence (P22909 whole entry): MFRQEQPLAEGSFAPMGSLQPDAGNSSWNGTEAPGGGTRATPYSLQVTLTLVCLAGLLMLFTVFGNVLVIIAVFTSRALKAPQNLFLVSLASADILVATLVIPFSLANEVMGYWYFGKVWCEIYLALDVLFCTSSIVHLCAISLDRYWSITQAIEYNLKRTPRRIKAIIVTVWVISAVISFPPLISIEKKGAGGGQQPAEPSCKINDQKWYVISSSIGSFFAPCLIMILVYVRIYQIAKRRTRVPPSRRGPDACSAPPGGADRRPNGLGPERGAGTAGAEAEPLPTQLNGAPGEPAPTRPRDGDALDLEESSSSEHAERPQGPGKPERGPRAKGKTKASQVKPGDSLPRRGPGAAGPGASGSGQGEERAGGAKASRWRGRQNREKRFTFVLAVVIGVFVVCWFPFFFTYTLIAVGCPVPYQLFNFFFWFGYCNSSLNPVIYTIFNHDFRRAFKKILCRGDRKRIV

[5] = target: D(2) dopamine receptor (Rattus norvegicus, UniProt P61169); assay: Affinity at dopamine D2 receptor, (For haloperidol Ki(nM)= 1.5+/-1.2)
[6] = test system: Mus musculus; assay: Antidepressant-like activity in the forced swimming test (FST) in mice at 1 mg/kg dose; format: functional
[7] = test system: Mus musculus; assay: Antidepressant-like activity in the forced swimming test (FST) in mice at 10 mg/kg dose; format: functional
[8] = target: Adrenergic receptor beta (Rattus norvegicus, UniProt P18090+P10608+P26255); assay: Affinity at beta-adrenoceptor (For DHA Ki(nM)= 3.5+/-0.3); format: protein assay
[9] = test system: Mus musculus; assay: Antidepressant-like activity in the forced swimming test (FST) in mice at 0.1 mg/kg dose; format: functional
[10] = target: Muscarinic acetylcholine receptor; assay: Affinity at muscarinic receptor, (For atropine Ki(nM)= 3.5+/-0.3); format: protein assay
[11] = target: T1, 5-hydroxytryptamine receptor 1A (Homo sapiens); assay: Percent increase in the Forskolin-Stimulated cAMP formation, in HeLa cells transfected with the 5-HT 1A receptor at 1 uM concentration; format: functional, cell-based
[12] = test system: Mus musculus; assay: Effect on immobility time in the forced swimming test (FST) in mice at 0.001 mg/kg dose; format: functional
[13] = test system: Mus musculus; assay: Effect on immobility time in the forced swimming test (FST) in mice at 0.01 mg/kg dose; format: functional
[14] = test system: Mus musculus; assay: Antidepressant-like activity in the forced swimming test (FST) in mice at 0.001 mg/kg dose; Antidepressant like activity; format: functional
[15] = test system: Mus musculus; assay: Antidepressant-like activity in the forced swimming test (FST) in mice at 0.01 mg/kg dose; Antidepressant like activity; format: functional
[16] = test system: Mus musculus; assay: Time-dependent effect on 8-OH-DPAT-induced hypothermia (change in body temperature) after 15 min, in mice at 0.01 mg/kg dose; format: functional
[17] = test system: Mus musculus; assay: Time-dependent effect on 8-OH-DPAT-induced hypothermia (change in body temperature) after 60 min, in mice at 0.01 mg/kg dose; format: functional
[18] = test system: Rattus norvegicus; assay: Effect on helpless behavior in rats and the number of escape failures was determined in shuttle-box session-1 (SB-1) at 10 mg/kg dose; format: functional
[19] = test system: Rattus norvegicus; assay: Effect on helpless behavior in rats and the number of escape failures was determined in shuttle-box session-2 (SB-2) at 10 mg/kg dose; format: functional
[20] = test system: Rattus norvegicus; assay: Effect on helpless behavior in rats and the number of escape failures was determined in shuttle-box session-3 (SB-) at 1 mg/kg dose; format: functional

5-hydroxytryptamine receptor 2A, sequence (P14842 whole entry): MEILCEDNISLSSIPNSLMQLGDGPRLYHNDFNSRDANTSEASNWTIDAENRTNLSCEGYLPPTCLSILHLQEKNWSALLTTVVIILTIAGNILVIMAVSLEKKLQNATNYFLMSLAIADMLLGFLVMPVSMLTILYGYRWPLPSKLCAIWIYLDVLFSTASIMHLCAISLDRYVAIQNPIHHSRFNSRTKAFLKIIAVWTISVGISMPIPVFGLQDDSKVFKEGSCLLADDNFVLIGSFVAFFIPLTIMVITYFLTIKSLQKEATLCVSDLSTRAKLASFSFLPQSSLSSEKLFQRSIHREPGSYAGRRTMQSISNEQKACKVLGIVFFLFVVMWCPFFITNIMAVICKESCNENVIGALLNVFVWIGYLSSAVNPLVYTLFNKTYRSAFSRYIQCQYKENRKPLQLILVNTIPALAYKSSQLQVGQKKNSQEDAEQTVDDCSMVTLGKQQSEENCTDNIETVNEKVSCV
D(2) dopamine receptor, sequence (P61169 whole entry): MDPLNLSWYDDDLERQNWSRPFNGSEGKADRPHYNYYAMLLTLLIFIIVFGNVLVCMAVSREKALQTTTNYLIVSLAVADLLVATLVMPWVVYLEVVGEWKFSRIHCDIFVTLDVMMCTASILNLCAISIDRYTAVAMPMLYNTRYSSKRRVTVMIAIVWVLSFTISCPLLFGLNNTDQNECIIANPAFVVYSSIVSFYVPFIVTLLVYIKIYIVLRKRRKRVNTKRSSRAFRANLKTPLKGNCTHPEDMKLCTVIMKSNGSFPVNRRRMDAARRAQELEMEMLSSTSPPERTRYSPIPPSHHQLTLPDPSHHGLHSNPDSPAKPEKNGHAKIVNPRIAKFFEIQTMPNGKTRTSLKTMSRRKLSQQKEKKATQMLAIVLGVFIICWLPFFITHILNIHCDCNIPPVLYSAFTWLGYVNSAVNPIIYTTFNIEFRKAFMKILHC
5-hydroxytryptamine receptor 1D, sequence (P28221 whole entry): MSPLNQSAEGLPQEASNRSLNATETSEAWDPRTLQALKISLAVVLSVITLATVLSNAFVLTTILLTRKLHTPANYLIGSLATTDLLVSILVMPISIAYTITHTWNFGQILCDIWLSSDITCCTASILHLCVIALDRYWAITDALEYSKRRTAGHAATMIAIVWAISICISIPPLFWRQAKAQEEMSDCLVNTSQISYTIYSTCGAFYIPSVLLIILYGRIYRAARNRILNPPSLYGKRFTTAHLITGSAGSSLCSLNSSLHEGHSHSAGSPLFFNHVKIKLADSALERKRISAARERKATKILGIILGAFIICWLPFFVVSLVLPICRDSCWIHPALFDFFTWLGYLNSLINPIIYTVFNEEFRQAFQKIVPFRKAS

cAMP increase [1]: 52%
SMILES: COc1ccccc1N1CCN(CCC(Oc2cccc3ccccc23)c2ccsc2)CC1 (stereo not given)

pKi [2]: 5.30 | pKi [3]: 5.30 | Ki [4]: 0.28 µM | pKi [5]: 6.30 | Ki [8]: > 5 µM | Ki [10]: > 5 µM
SMILES: COc1ccccc1N1CCN(CCC(=O)c2csc3ccccc23)CC1
Activity [6]: 60% | Activity [7]: 54% | Activity [9]: 18%

SMILES: COc1ccccc1N1CCN(CCC(O)c2csc3ccccc23)CC1 (stereo not given)
cAMP increase [11]: 64% | Immobility time [12]: <58.8 s | Immobility time [13]: <54.4 s | Activity [14]: 67% | Activity [15]: 70% | Temperature change [16]: -1.26 °C | Temperature change [17]: -0.73 °C | No. of escape failures [18]: 6.6 | No. of escape failures [19]: 3.2 | No. of escape failures [20]: 1.8

Reference: ChEMBL document CHEMBL1134339, “New 1-aryl-3-(4-arylpiperazin-1-yl)propane derivatives, with dual action at 5-HT1A serotonin receptors and serotonin transporter, as a new class of antidepressants” (J Med Chem, 2001)
